Data reported in article PMC10947113, “A Bivalent Activatable Fluorescent Probe for Screening and Intravital Imaging of Chemotherapy‐Induced Cancer Cell Death” (Angewandte Chemie (Weinheim an Der Bergstrasse, Germany), 2021).
Starred links: 1 amine or outer side, 2 acyl side, 3 side chain; linkers in the order of their positions; H or OH if unused. Non-standard residues stand in square brackets, D forms with d. Residues, ends and D or L forms follow the SMILES beside them. X1 = CC1=CC(C)=[N+]2C1=C(c1cccc(-c3[nH]c4ccccc4c3C[C@H](N[*:1])C(=O)[*:2])c1)c1ccc(-c3ccc(C)s3)n1[B-]2(F)F

Experiments:
[1] = Stability analysis in mouse serum; assay type: in vitro ADME; conditions: 24 h, 37 °C, 500 rpm shaker, 50 μM (method) or 25 μM (Figure S14), CH3CN protein precipitation, HPLC traces and fluorescence emission (exc 520 nm)
Method: Figure S14. Stability analysis of Apotracker Red in mouse serum. HPLC traces of Apotracker Red (25 μM) after incubation in PBS buffer or mouse serum for 24 h at 37 °C . […]
fluorescence emission of Apotracker Red before and after incubation in mouse serum and […]
(1 picture or pasted object on this page, not shown here) […]
r.t., followed by separation from erythrocytes by centrifugation for 10 min, 2, 000 g at r.t. Sera were transferred into new tubes and stored at - 20°C until use. 50 μM Apotracker Red in PBS or in serum were incubated fo r 24 h at 37 °C on a vertical shaker at 500 rpm . A s control s, seru m without peptide and freshly aliquoted 50 μM Apotracker Red in mouse serum were used.
Fluorescence spectra were recorded after excitation at 520 nm. For HPLC measurements, proteins were precipitated by addition of CH3CN and centrifugation at 300 g fo r 5 m in a t r.t. and the resulting supernatants were injected.
Lipid layer assays . […] The limit of detection (LoD) of Apotracker Red for PtdSer was determined by fluorescence titration of serial dilutions of Pt dSer layers after incubation with Apotracker Red (1 μM, PBS) at 25 °C for 40 min. The LoD was calculated using the equation LoD = (3 × σ)/k, where σ is the standard deviation of blank solutions and k is the slope of the linear regression fit. Data was recorded on Cytation 3 (exc: 530 nm). […]

MCF7 cells = test: Cell viability, TACS MTT cell proliferation assay, MCF7; assay type: cell-based, human; conditions: different working concentrations, 3 h, means ± SD (n=5), ns for p>0.05
Method: (§1) Figure S15. Cell viability experiments (TACS® MTT cell proliferation assay) after incubation of Apotracker Red in breast cancer cell lines (a: MCF7 cells, b: MDA-MB-231 cells) at different concentrations for 3 h. Data presented as means ± SD (n=5). P values obtained from one- way ANOVA using multiple comparisons (ns for p>0.05).
(§2) Figure S16. Quantification of E GFP+ macrophages in tumours from untreated and cisplatin-treated mice by time- lapse imaging on a spinning disk confocal microscope (λexc: 488 nm). Data presented as means ± SD of 8 random areas in 2- 3 mice per group (untreated or treated with 10 μg g-1 cisplatin for 72 h). […]

MDA-MB-231 cells = test: Cell viability, TACS MTT cell proliferation assay, MDA-MB-231; assay type: cell-based, human; conditions: different working concentrations, 3 h, means ± SD (n=5), ns for p>0.05
Method: as §1, §2

CC1=CC(C)=[N+]2C1=C(c1cccc(-c3[nH]c4ccccc4c3C[C@@H]3NC(=O)[C@H](Cc4ccccc4)NC(=O)[C@H](Cc4c[nH]c5ccccc45)NC(=O)[C@H](CCCCN)NC(=O)[C@H](CCCCN)NC(=O)[C@H](CCCNC(=N)N)NC(=O)CNC3=O)c1)c1ccc(-c3ccc(C)s3)n1[B-]2(F)F [Apotracker Red] (cyclo(F[X1]GRKKW))
proteolytic stability in mouse serum [1]: good proteolytic stability for up to 24 h | cell toxicity (MTT cell viability), MCF7 (MCF7 cells): did not cause cell toxicity | cell toxicity (MTT cell viability), MDA-MB-231 (MDA-MB-231 cells): did not cause cell toxicity
